From patent publication US20200197533A1, “COMBINATION CANCER THERAPY USING CHIMERIC ANTIGEN RECEPTOR ENGINEERED NATURAL KILLER CELLS AS CHEMOTHERAPEUTIC DRUG CARRIERS” (priority 2017, published 2020)
Entries after “also recorded” stand apart in the source; their conditions may differ.

What was measured:
SKOV3 cells = experiment: Cell viability (XTT) assay with cMLV(PTX); format: cell-based; details: various concentrations of cMLV(PTX), compared with NK cells
Procedure: (§1) NK92 and SKOV3 cells were seeded in 96-well plates at 2×10^4 cells per well in 10% FBS-containing media and grown at 37° C. in the presence of 5% CO2 for 6 hours. Cells were incubated with various concentrations of cMLV (PTX) as previously described (Liu, Y, et al (2014). Codelivery of doxorubicin and paclitaxel by cross-linked multilamellar liposome enables synergistic antitumor activity. Mol Pharm 11: 1651-1661) and cell viability was assessed using the Cell Proliferation Kit II (XTT assay) from Roche Applied Science (Indianapolis, Ind.) according to the manufacturer's instructions. Cell viability percentage was determined by subtracting absorbance values obtained from media-only wells from the treated wells and then normalized by the control wells containing cells without drugs.

NK92 cells = experiment: Cell viability (XTT) assay with cMLV(PTX); format: cell-based, human; details: various concentrations of cMLV(PTX)
Procedure: as §1

lymphoma cells = details: drug-loaded nanocapsules conjugated to murine T cells; cited from earlier work
T cell carriers = details: drug-loaded nanocapsules conjugated to murine T cells; cited from earlier work

Structure (SMILES) | cell viability of SKOV3 tumor cells exposed to PTX (SKOV3 cells) | cell viability of NK92 carrier cells exposed to PTX (NK92 cells) | killing of lymphoma cells (lymphoma cells) | toxicity to the T cell carriers (T cell carriers)
CC(=O)O[C@H]1C(=O)[C@@]2(C)[C@H]([C@H](OC(=O)c3ccccc3)[C@]3(O)C[C@H](OC(=O)[C@H](O)[C@@H](NC(=O)c4ccccc4)c4ccccc4)C(C)=C1C3(C)C)[C@]1(OC(C)=O)CO[C@@H]1C[C@@H]2O [PTX, paclitaxel] | more sensitive to PTX; also recorded: can kill tumor cells | not NK92 cells | – | –
CCc1c2c(nc3ccc(O)cc13)-c1cc3c(c(=O)n1C2)COC(=O)[C@]3(O)CC [SN-38] | – | – | effectively killed lymphoma cells | not toxic to the T cell carriers
